{"source": "patent US12583895B2", "about": "“Polypeptides for restoring endothelial function and methods of use thereof” (Vanderbilt University, priority 2019, dated 2026)", "key": {"[1]": {"system": "rat aorta", "assay": "Carbachol-induced relaxation of anisomycin-treated rat aorta", "format": "cell-based", "conditions": "rat aorta; anisomycin 200 μM, 1 h", "experimental": "(§1) RA rings were suspended in a muscle bath and incubated with either buffer alone (Ctrl), Aniso (200 μM) for 1 h, or NiPp (500 μM) for 30 min followed by Aniso (200 μM) for 1 h. […] Proteins were extracted […] immunoblotted to examine p38MAPK phosphorylation. Quantification of relative phosphorylation to total p38MAPK level is shown. n=10, *p<0.05 in one-way ANOVA with Tukey post-test. NiPp restores endothelial dysfunction and reduced p38 MAPK phosphorylation induced by anisomycin in RA.\nRA rings were suspended in a muscle bath and incubated with either buffer alone (Ctrl), Aniso (200 μM) for 1 h, or NiPp (500 μM) for 30 min followed by Aniso (200 μM) for 1 h. […] The force generated was determined and was adjusted to the weight and length of the tissue. Representative tracings from 1 out of 6 different rats are shown. […] Proteins were extracted and phosphorylation of p38 MAPK was determined by Western blot analysis. […] Data are expressed as mean±SD. […]\nThis produced the maximal force tension relationship as previously described. […] Contractile responses were defined by stress, calculated using force generated by tissues as follows: stress (×10^5 N/m^2)=force (g)×0.0987/area, where area=wet weight (mg)/at maximal length (mm)]/1.055.\nRelaxation was calculated as percent change in stress compared to the maximal PE-induced contraction (set as 100%). […]"}, "[2]": {"system": "p38 MAPK phosphorylation", "assay": "p38 MAPK phosphorylation (Western blot) in anisomycin-treated rat aorta", "format": "cell-based", "conditions": "anisomycin 200 μM, 1 h", "experimental": "as §1\nRA rings were suspended in a muscle bath and incubated with either buffer alone (Ctrl), Aniso (200 μM) for 1 h, or NiPp (500 μM) for 30 min followed by Aniso (200 μM) for 1 h. […] The force generated was determined and was adjusted to the weight and length of the tissue. […] Proteins were extracted and phosphorylation of p38 MAPK was determined by Western blot analysis. […] Data are expressed as mean±SD.\np38 MAPK activation with Anisomycin. […] After treatments, endothelial-dependent relaxation was determined or tissues were snap-frozen for Western blot analysis.\nWestern blot Analysis. […] The protein-antibody complexes were visualized and quantified using the Odyssey Infrared Imaging System. Phosphorylation was calculated as a ratio of the phosphorylated protein to total protein and was then normalized to the untreated tissues (Ctrl) with the control value set as 1.0."}}}
{"smiles": "COc1ccc(C[C@H]2NC[C@H](O)[C@H]2OC(C)=O)cc1", "note": "[Anisomycin, anisomycin, reference compound]", "values": [{"measurement": "effect of anisomycin alone on endothelial dependent relaxation", "setting": "[1]", "value": "impaired"}, {"measurement": "effect of anisomycin alone on phosphorylation of p38 MAPK", "setting": "[2]", "value": "increases"}]}
